What was measured:
[1] = test system: CWR22R; assay: cells; format: functional, cell-based; conditions: Homo sapiens, 22Rv1, 168 h
Description: Antiproliferative activity against human 22Rv1 cells assessed as inhibition of cell viability incubated for 7 days by Celltiter-Glo assay

[2] = cells; format: functional, cell-based; conditions: Homo sapiens, LNCaP-EnzR, 168 h
Description: Antiproliferative activity against human LNCaP-EnzR cells assessed as inhibition of cell viability incubated for 7 days by Celltiter-Glo assay

[3] = test system: LNCaP; assay: cells; format: functional, cell-based; conditions: Homo sapiens, 168 h
Description: Antiproliferative activity against human LNCaP cells incubated for 7 days in presence of R1881 by Celltiter-Glo assay

[4] = target: T1, Androgen receptor (Homo sapiens, UniProt P10275); format: cell-based, HEK293
T1 sequence (P10275 whole entry): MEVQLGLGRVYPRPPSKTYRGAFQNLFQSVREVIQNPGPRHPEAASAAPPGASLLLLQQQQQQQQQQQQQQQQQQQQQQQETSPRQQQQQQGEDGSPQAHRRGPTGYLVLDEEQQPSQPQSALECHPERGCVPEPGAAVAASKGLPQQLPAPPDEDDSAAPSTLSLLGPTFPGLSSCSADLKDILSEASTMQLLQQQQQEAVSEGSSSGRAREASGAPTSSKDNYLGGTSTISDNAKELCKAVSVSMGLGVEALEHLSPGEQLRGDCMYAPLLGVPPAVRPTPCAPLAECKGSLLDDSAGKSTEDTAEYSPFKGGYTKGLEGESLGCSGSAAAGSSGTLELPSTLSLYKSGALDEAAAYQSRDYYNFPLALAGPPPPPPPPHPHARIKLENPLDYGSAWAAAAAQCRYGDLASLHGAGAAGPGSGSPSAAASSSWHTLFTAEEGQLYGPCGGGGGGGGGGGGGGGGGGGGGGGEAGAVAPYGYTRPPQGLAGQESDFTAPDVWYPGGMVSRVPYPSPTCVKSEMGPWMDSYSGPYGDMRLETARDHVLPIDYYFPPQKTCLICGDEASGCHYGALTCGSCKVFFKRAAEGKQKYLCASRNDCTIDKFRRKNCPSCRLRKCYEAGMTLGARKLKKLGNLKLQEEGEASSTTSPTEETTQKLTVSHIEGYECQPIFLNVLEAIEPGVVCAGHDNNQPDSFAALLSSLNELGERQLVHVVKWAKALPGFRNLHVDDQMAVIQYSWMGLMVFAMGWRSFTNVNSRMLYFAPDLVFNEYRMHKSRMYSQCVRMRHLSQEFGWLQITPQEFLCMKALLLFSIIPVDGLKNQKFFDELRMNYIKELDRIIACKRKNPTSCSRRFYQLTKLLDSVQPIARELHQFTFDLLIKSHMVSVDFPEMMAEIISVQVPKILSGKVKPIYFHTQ

[5] = in vitro; conditions: mouse, microsomes
Description: Metabolic stability in mouse liver microsomes assessed as parent compound remaining at 1 uM measured after 60 mins in presence of NADPH by LC-MS/MS analysis

[6] = in vitro; conditions: human, microsomes
[7] = in vitro; conditions: human, microsomes; remark: listed apart in the source
Description: Metabolic stability in human liver microsomes assessed as parent compound remaining at 1 uM measured after 60 mins in presence of NADPH by LC-MS/MS analysis

[8] = target: Androgen receptor (Homo sapiens, UniProt P10275, F877L); format: cell-based, HEK293
[9] = in vitro; conditions: human, microsomes; remark: listed apart in the source
[10] = target: Androgen receptor (Homo sapiens, UniProt P10275, W742L); format: cell-based, HEK293
[11] = mouse, microsomes, 1 h, 1 µM

Row | SMILES | IC50 [3] [nM] | IC50 [4] [nM] | further results
1 | C[C@](O)(Cn1ccc2cc(F)ccc21)C(=O)Nc1ccc(C#N)c(C(F)(F)F)c1 | – | – | IC50 [1]: 9980 nM; IC50 [2]: 10900 nM
2 | N#Cc1ccc(N2CCC3(CC(NC(=O)c4ccc(C(=O)O)cc4)C3)C2)cc1C(F)(F)F (centres undefined) | > 50000 | – | –
3 | CC(O)c1cc(C(=O)NC2CC3(CCN(c4ccc(C#N)c(C(F)(F)F)c4)C3)C2)n[nH]1 (centres undefined) | > 100000 | – | –
4 | N#Cc1ccc(N2CCC3(CC(NC(=O)c4ccc([N+](=O)[O-])cc4)C3)C2)cc1C(F)(F)F (centres undefined) | 3280 | – | –
5 | N#Cc1ccc(N2CCC3(CC(NC(=O)c4ccccc4)C3)C2)cc1C(F)(F)F (centres undefined) | – | 43.7 | –
6 | CNC(=O)c1ccc(C(=O)NC2CC3(CCN(c4ccc(C#N)c(C(F)(F)F)c4)C3)C2)cc1F (centres undefined) | 2260 | 26.3 | –
7 | N#Cc1ccc(NC(=O)C2CC3(CCN(c4ccc(C#N)c(C(F)(F)F)c4)C3)C2)cc1 (centres undefined) | 4370 | – | –
8 | N#Cc1ccc(N2CCC3(CC(NC(=O)c4ccc(CO)cc4)C3)C2)cc1C(F)(F)F (centres undefined) | 1990 | 37.8 | –
9 | N#Cc1ccc(-c2ccc(C(=O)NC3CC4(CCN(c5ccc(C#N)c(C(F)(F)F)c5)C4)C3)cc2)cc1F (centres undefined) | 190 | – | remaining at 1 h, 1 µM [5]: 100%; microsomal CLint at 1 h, 1 µM [6]: 9 µL/min/mg; remaining at 1 h, 1 µM [7]: 76.8%; IC50 [1]: > 50000 nM; IC50 [2]: 1190 nM; IC50 [8]: > 10000 nM; half-life at 1 h, 1 µM [9]: 2.57 h; IC50 [10]: 116 nM
10 | Cc1ccc(C(=O)NC2CC3(CCN(c4ccc(C#N)c(C(F)(F)F)c4)C3)C2)cn1 (centres undefined) | 2570 | 33.2 | –
11 | Cc1ccc(C(=O)NC2CC3(CCN(c4ccc(C#N)c(C(F)(F)F)c4)C3)C2)cc1 (centres undefined) | 1260 | – | –
12 | N#Cc1ccc(CN2CC3(CCN(c4ccc(C#N)c(C(F)(F)F)c4)C3)C2)cc1 | – | 313 | –
13 | N#Cc1ccc(-c2ccc(C(=O)NC3CC4(CCN(c5ccc(C#N)c(C(F)(F)F)c5)C4)C3)cc2)cc1 (centres undefined) | 80 | 29.8 | IC50 [1]: > 50000 nM; IC50 [2]: 1140 nM; IC50 [10]: 160 nM
14 | COc1ccc(C(=O)NC2CC3(CCN(c4ccc(C#N)c(C(F)(F)F)c4)C3)C2)cc1 (centres undefined) | 920 | 25.1 | –
15 | CN1CCN(c2ccc(C(=O)NC3CC4(CCN(c5ccc(C#N)c(C(F)(F)F)c5)C4)C3)cc2)CC1 (centres undefined) | 3570 | 24.6 | –
16 | COC(=O)c1ccc(C(=O)NC2CC3(CCN(c4ccc(C#N)c(C(F)(F)F)c4)C3)C2)cc1 (centres undefined) | 6460 | – | –
17 | C[C@](O)(CN1CCN(c2ccc(-c3ccc(C#N)c(F)c3)cc2)CC1)C(=O)Nc1ccc(C#N)c(C(F)(F)F)c1 | – | – | remaining at 1 h, 1 µM [5]: 12.2%; microsomal CLint at 1 h, 1 µM [6]: 252 µL/min/mg; CLH [11]: 282 µL/min; remaining at 1 h, 1 µM [7]: 0.74%; IC50 [1]: 2340 nM; IC50 [2]: 3290 nM; half-life at 1 h, 1 µM [9]: 0.0825 h
18 | N#Cc1ccc(N2CCC3(CC(NC(=O)c4ccc(-c5ccc(OCCO)cc5)cc4)C3)C2)cc1C(F)(F)F (centres undefined) | 650 | – | –
19 | N#Cc1ccc(N2CCC3(CC(NC(=O)c4ccc(F)cc4)C3)C2)cc1C(F)(F)F (centres undefined) | 2230 | – | –
20 | CC(O)c1cc(C(=O)N[C@@H](C)Cn2ccc(-c3ccc(C#N)c(Cl)c3)n2)n[nH]1 (some centres undefined) [DAROLUTAMIDE] | – | – | IC50 [2]: 31200 nM
